These results are taken from patent EP2000140A1, “Use of derivatives of 3-oxo-2,3-dihydro-5H-thiazolo[3,2-a]pyrimidine or of 3-oxo-2,3-dihydro-5H-imidazolo[3,2-a]pyrimidine for the preparation of pharmaceutical compositions intended for the treatment of cancer” (INSTITUT NATIONAL DE LA SANTE ET DE LA RECHERCHE MEDICALE …, priority 2007, dated 2008).

SMILES strings stand for the structures. Where a name gives a salt, the structure may show the parent alone. Read-outs that look alike come from different tables or passages of the source.

One experiment has as its system HeLa cells. Briefly: Clonogenic assay (cloning inhibition, colony counting after crystal violet staining). As to conditions: 10 days incubation. Format: cell-based. As for the experimental part:
For cloning inhibition assays, HeLa cells were plated at 100 cells/well in 6-well tissue culture plates with 2.5 mL of medium/well. After 24 h growing at 37 °C in a humidified atmosphere of 5% CO2, the culture medium was replaced by control medium or medium containing inhibitors at increasing concentrations (up to 100 µM) and incubated for 10 days. Cells were then washed with […] phosphate-buffered saline and fixed in 10% formaldehyde for 30 minutes at room temperature. They were carefully rinsed with water, stained with 1 mL crystal violet (2 g in 100 mL ethanol, then 2 mL in 100 mL water) for 10 minutes and finally rinsed with water. The plating efficiency was determined by counting the colonies. The results are expressed as the means of two independent experiments with three determinations per tested concentration. For each compound, the IC50 was determined from a sigmoidal dose-response using GraphPad Prism (GraphPad Software, San Diego, CA).
The effects on cell proliferation were further investigated in a clonogenic assay on HeLa cells. HeLa cells were treated at day 1 with increasing concentration of drugs and then plated for an additional 10-day. After crystal violet staining and colony counting, dose-response curve were drawn and the IC50 values determined.

The target in experiment [1] is T1, MBP-CDC25B3 recombinant enzyme (Homo sapiens, UniProt P30305).
T1 construct: made in house
T1 sequence (P30305 1-580): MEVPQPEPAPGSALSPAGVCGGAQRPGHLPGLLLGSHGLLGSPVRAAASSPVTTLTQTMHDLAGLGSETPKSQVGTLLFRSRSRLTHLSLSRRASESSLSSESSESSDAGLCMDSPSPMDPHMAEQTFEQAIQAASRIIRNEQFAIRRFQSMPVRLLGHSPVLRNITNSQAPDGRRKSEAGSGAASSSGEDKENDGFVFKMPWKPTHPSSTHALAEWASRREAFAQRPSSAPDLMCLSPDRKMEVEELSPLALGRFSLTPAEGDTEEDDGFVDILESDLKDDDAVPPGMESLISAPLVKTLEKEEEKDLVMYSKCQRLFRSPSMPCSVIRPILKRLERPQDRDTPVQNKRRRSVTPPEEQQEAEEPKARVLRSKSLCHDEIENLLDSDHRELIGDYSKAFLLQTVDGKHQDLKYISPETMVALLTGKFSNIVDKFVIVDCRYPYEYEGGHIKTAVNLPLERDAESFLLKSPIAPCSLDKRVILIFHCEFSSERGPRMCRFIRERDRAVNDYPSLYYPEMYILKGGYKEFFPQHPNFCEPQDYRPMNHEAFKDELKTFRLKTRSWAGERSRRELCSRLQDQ
Nature of the experiment: In vitro enzymatic assay (fluorescein diphosphate as substrate). In kind it is biochemical. As to conditions: recombinant fused MBP-CDC25B protein, fluorescein diphosphate 30 µM as substrate, concentration response up to 100 µM. The protocol:
The activity of the MBP-CDC25B3 recombinant enzyme was monitored using fluorescein diphosphate as the substrate. The assay was performed in 96-well plates in a final volume of 200 µL. The maltose binding protein-CDC25B3 was kept in elution buffer [50mM phosphate pH 7.5, 300 mM NaCl, 500 mM imidazole, 10% glycerol]. It was diluted in assay buffer [30 mM Tris-HCl (pH 8.2), 75 mM NaCl, 0.67 mM EDTA, 0.033% BSA, 1 mM DTT]. The final concentration of CDC25B3 was 75 ng/well. Products were studied in a concentration response up to 100 µM. The reaction was initiated by addition of 30 µM of fluorescein diphosphate followed by immediate measure of fluorescein emission with a Fluoroskan Ascent (Lab Systems; excitation filter: 485 nm, emission filter: 530 nm). The results are expressed as the means of at least two independent experiments with three determinations per tested concentration and per experiment. For each compound, the drug concentration required for 50% inhibition (IC50) was determined from a sigmoidal dose-response curve using GraphPad Prism (GraphPad Software, San Diego, CA).
The compounds of formula (I) were evaluated for in vitro enzymatic activity inhibition on the recombinant fused MBP-CDC25B protein with fluorescein diphosphate as the substrate.

Setting [2] is: Homo sapiens, 240 h, read-out: IC50.

In the case of `CCOC(=O)C1=C(C)N=c2sc(=Cc3ccc(O)cc3)c(=O)n2C1c1ccc2c(c1)OCO2` (centres unmarked) [(1a), ethyl 5-(benzo[1,3]dioxol-5-yl)-2-(4-hydroxybenzylidene)-7-methyl-3-oxo-2,3-dihydro-5H-thiazolo[3,2-a]pyrimidinium-6-carboxylate mesylate], the IC50 came to 14.8 µM with HeLa cells (mesylate) and 6 µM in experiment [1].

Consider `COC(=O)C1=C(C)N=c2sc(=Cc3ccc(O)cc3)c(=O)n2C1c1ccc2c(c1)OCO2` (centres unmarked) [(12a), methyl 5-(benzo[1,3]dioxol-5-yl)-2-(4-hydroxybenzylidene)-7-methyl-3-oxo-2,3-dihydro-5H-thiazolo[3,2-a]pyrimidine-6-carboxylate], for which the IC50 in experiment [1] came to 9.2 µM.

As to `CCOC(=O)C1=C(C)N=c2sc(=Cc3ccc(O)cc3)c(=O)n2C1c1ccc2c(c1)OCO2` (stereo not drawn) [Compound 1, ethyl 5-(benzo[1,3]dioxol-5-yl)-2-(4-hydroxybenzylidene)-7-methyl-3-oxo-2,3-dihydro-5H-thiazolo[3,2-α]pyrimidine-6-carboxylate], the IC50 in the experiment on HeLa cells (Homo sapiens, HeLa, 240 h) turned out to be 15.9 µM; in experiment [1], 13 µM.

Take `CCOC(=O)C1=C(C)N=c2sc(=Cc3cc(Br)c(O)c(Br)c3)c(=O)n2C1c1ccc2c(c1)OCO2` (centres unmarked) [Compound 12, ethyl 5-(benzo[1,3]dioxol-5-yl)-2-(3,5-dibromo-4-hydroxybenzylidene)-7-methyl-3-oxo-2,3-dihydro-5H-thiazolo[3,2-a]pyrimidine-6-carboxylate]: the IC50 is 9.75 µM in the experiment with HeLa cells (setting [2]) and 16.7 µM in experiment [1].

Consider `CCOC(=O)C1=C(C)N=c2sc(=Cc3ccc(OC(C)=O)c(OC(C)=O)c3)c(=O)n2C1c1ccc2c(c1)OCO2` (centres unmarked) [Compound (5a), ethyl 2-(3,4-diacetoxybenzylidene)-5-(benzo[1,3]dioxol-5-yl)-7-methyl-3-oxo-2,3-dihydro-5H-thiazolo[3,2-a]pyrimidine-6-carboxylate], for which the IC50 amounted to 1.8 µM with HeLa cells (setting [2]) and 1.2 µM in experiment [1].

As to `CCOC(=O)C1=C(C)N=c2sc(=Cc3ccc(OC(C)=O)c(OC(C)=O)c3)c(=O)n2C1c1ccc(OC)c(OC)c1` (centres unmarked) [Compound (5b), ethyl 2-(3,4-diacetoxybenzylidene)-5-(3,4-dimethoxyphenyl)-7-methyl-3-oxo-2,3-dihydro-5H-thiazolo[3,2-a]pyrimidine-6-carboxylate], the IC50 with HeLa cells (setting [2]) is 3.5 µM; in experiment [1], 2.9 µM.

Broadly, the IC50 is the concentration at which inhibition is half-maximal.
